Reference: patent US9221827B2, “Antimicrobial compounds and methods of making and using the same” (Melinta Therapeutics, Inc., priority 2011, dated 2015)

System: Escherichia coli strain ATCC25922
Experiment: standard microdilution assay to determine minimum inhibitory concentrations (MICs)
Format: cell-based
Conditions: Escherichia coli strain ATCC25922, microdilution
Description: The in vitro activity of the compounds of the present invention can be determined. Antimicrobial testing is typically performed to determine the minimum inhibitory concentration (MIC). Minimum inhibitory concentrations (MICs) are determined by the microdilution method in a final volume of 100 μl according to protocols outlined by The Clinical and Laboratory Standards Institute (CLSI). Performance standards for reference strains are assessed within the same experimental design to maintain quality control. See, for example, Clinical Laboratory Standards Institute: Methods for dilution antimicrobial susceptibility tests for bacteria that grow aerobically M7-A8. Approved Standard-Eighth Edition. Wayne, Pa.: CLSI; December 2008; and Clinical Laboratory Standards Institute: Performance Standards for Antimicrobial Susceptibility Testing M100-S20; Approved Standard-Twentieth Edition. Wayne, Pa.: CLSI; June 2010.
The compounds of the present invention were tested for antimicrobial activity. […] The compounds were run against Escherichia coli strain ATCC25922 using a standard microdilution assay to determine minimum inhibitory concentrations (MICs). […] A “N/A” means that data is unavailable. It will be recognized by one skilled in the art that the compounds can be assessed against other bacterial organisms and that the presentation of data for activity against Escherichia coli is illustrative and in no way is intended to limit the scope of the present invention. The compounds of the present invention can be assayed against a range of other microorganisms depending upon the performance activity desired to be gathered. Furthermore, the “+”, “−”, and “N/A” representation and the selection of a cutoff value of 16 micrograms/ml is also illustrative and in no way is intended to limit the scope of the present invention.

## COc1cc(F)c(-c2cc3cn(-c4ccc(CNCCCN=C(N)N)cc4)c(=O)nc3[nH]2)cc1CCCCN [Compound 83]
  E. coli ATCC25922 MIC: + (a “+” indicates that the compound has an MIC value of 16 micrograms/ml or less)

## NCCCCc1c(F)ccc(-c2cc3cn(-c4ccc(CNCCCN=C(N)N)cc4)c(=O)nc3[nH]2)c1F [Compound 84]
  E. coli ATCC25922 MIC: + (a “+” indicates that the compound has an MIC value of 16 micrograms/ml or less)

## NCCCCc1cc(OC(F)(F)F)cc(-c2cc3cn(-c4ccc(CNCCCN=C(N)N)cc4F)c(=O)nc3[nH]2)c1 [Compound 90]
  E. coli ATCC25922 MIC: + (a “+” indicates that the compound has an MIC value of 16 micrograms/ml or less)

## NCCCCc1cc(Cl)c(F)c(-c2cc3cn(-c4ccc(CNCCCN=C(N)N)cc4)c(=O)nc3[nH]2)c1 [Compound 91]
  E. coli ATCC25922 MIC: + (a “+” indicates that the compound has an MIC value of 16 micrograms/ml or less)

## NCCCCc1cc(SC(F)(F)F)c(Cl)c(-c2cc3cn(-c4ccc(CNCCCN=C(N)N)cc4)c(=O)nc3[nH]2)c1 [Compound 92]
  E. coli ATCC25922 MIC: + (a “+” indicates that the compound has an MIC value of 16 micrograms/ml or less)

## CC(CCN)Cc1cc(OC(F)(F)F)cc(-c2cc3cn(-c4ccc(CNCCCNC(=N)N)cc4)c(=O)nc3[nH]2)c1 (centres unmarked) [Compound 93]
  E. coli ATCC25922 MIC: + (a “+” indicates that the compound has an MIC value of 16 micrograms/ml or less)

## CC(CCCN)c1cc(OC(F)(F)F)cc(-c2cc3cn(-c4ccc(CNCCCNC(=N)N)cc4)c(=O)nc3[nH]2)c1 (centres unmarked) [Compound 94]
  E. coli ATCC25922 MIC: + (a “+” indicates that the compound has an MIC value of 16 micrograms/ml or less)

## C=C(CCCN)c1cc(OC(F)(F)F)cc(-c2cc3cn(-c4ccc(CNCCCNC(=N)N)cc4)c(=O)nc3[nH]2)c1 [Compound 95]
  E. coli ATCC25922 MIC: + (a “+” indicates that the compound has an MIC value of 16 micrograms/ml or less)

## N=C(N)NCCCNCc1ccc(-n2cc3cc(-c4cc(CCC5(CN)CCC5)cc(OC(F)(F)F)c4)[nH]c3nc2=O)cc1 [Compound 96]
  E. coli ATCC25922 MIC: + (a “+” indicates that the compound has an MIC value of 16 micrograms/ml or less)

## CC(C)c1cc(CCC(C)(C)CN)cc(-c2cc3cn(-c4ccc(CNCCCNC(=N)N)cc4)c(=O)nc3[nH]2)c1 [Compound 97]
  E. coli ATCC25922 MIC: + (a “+” indicates that the compound has an MIC value of 16 micrograms/ml or less)

## CC(C)c1cc(CCC2(CN)CCC2)cc(-c2cc3cn(-c4ccc(CNCCCNC(=N)N)cc4)c(=O)nc3[nH]2)c1 [Compound 103]
  E. coli ATCC25922 MIC: + (a “+” indicates that the compound has an MIC value of 16 micrograms/ml or less)

## CC(C)(CN)CCc1cc(OC(F)(F)F)cc(-c2cc3cn(-c4ccc(CNCCCNC(=N)N)cc4)c(=O)nc3[nH]2)c1 [Compound 104]
  E. coli ATCC25922 MIC: + (a “+” indicates that the compound has an MIC value of 16 micrograms/ml or less)

## N=C(N)NCCCNCc1ccc(-n2cc3cc(-c4cc(CCCCN)cc(OC(F)(F)F)c4F)[nH]c3nc2=O)cc1 [Compound 107]
  E. coli ATCC25922 MIC: + (a “+” indicates that the compound has an MIC value of 16 micrograms/ml or less)

## Cc1c(Cl)cc(CCCCN)cc1-c1cc2cn(-c3ccc(CNCCCNC(=N)N)cc3)c(=O)nc2[nH]1 [Compound 108]
  E. coli ATCC25922 MIC: + (a “+” indicates that the compound has an MIC value of 16 micrograms/ml or less)

## Cc1c(Cl)cc(-c2cc3cn(-c4ccc(CNCCCNC(=N)N)cc4)c(=O)nc3[nH]2)cc1CCCCN [Compound 109]
  E. coli ATCC25922 MIC: + (a “+” indicates that the compound has an MIC value of 16 micrograms/ml or less)

## N=C(N)NCCCNCc1ccc(-n2cc3cc(-c4cc(C5CC5CN)cc(C(F)(F)F)c4)[nH]c3nc2=O)cc1 (centres unmarked) [Compound 110]
  E. coli ATCC25922 MIC: + (a “+” indicates that the compound has an MIC value of 16 micrograms/ml or less)

## N=C(N)NCCCNCc1ccc(-n2cc3cc(-c4cc(CCCCN)cc(C(F)(F)F)c4F)[nH]c3nc2=O)cc1 [Compound 111]
  E. coli ATCC25922 MIC: + (a “+” indicates that the compound has an MIC value of 16 micrograms/ml or less)

## N=C(N)NCCCNCc1ccc(-n2cc3cc(-c4cc(OC(F)(F)F)cc(C(F)(F)CCCN)c4)[nH]c3nc2=O)cc1 [Compound 112]
  E. coli ATCC25922 MIC: + (a “+” indicates that the compound has an MIC value of 16 micrograms/ml or less)

## N#Cc1cc(CCCCN)cc(-c2cc3cn(-c4ccc(CNCCCNC(=N)N)cc4)c(=O)nc3[nH]2)c1Cl [Compound 114]
  E. coli ATCC25922 MIC: + (a “+” indicates that the compound has an MIC value of 16 micrograms/ml or less)

## N=C(N)NCCCNCc1ccc(-n2cc3cc(-c4cc(CCCCN)cc([N+](=O)[O-])c4Cl)[nH]c3nc2=O)cc1 [Compound 115]
  E. coli ATCC25922 MIC: + (a “+” indicates that the compound has an MIC value of 16 micrograms/ml or less)

## N=C(N)NCCCNCc1ccc(-n2cc3cc(-c4cc(CCC5(CN)CCC5)ccc4F)[nH]c3nc2=O)cc1 [Compound 116]
  E. coli ATCC25922 MIC: + (a “+” indicates that the compound has an MIC value of 16 micrograms/ml or less)

## CC(C)(CN)CCc1ccc(F)c(-c2cc3cn(-c4ccc(CNCCCNC(=N)N)cc4)c(=O)nc3[nH]2)c1 [Compound 117]
  E. coli ATCC25922 MIC: + (a “+” indicates that the compound has an MIC value of 16 micrograms/ml or less)

## N#Cc1cc(-c2cc3cn(-c4ccc(CNCCCNC(=N)N)cc4)c(=O)nc3[nH]2)cc(CCCCN)c1Cl [Compound 118]
  E. coli ATCC25922 MIC: + (a “+” indicates that the compound has an MIC value of 16 micrograms/ml or less)

## Cc1c(-c2cc3cn(-c4ccc(CNCCCNC(=N)N)cc4)c(=O)nc3[nH]2)cc(CCCCN)cc1[N+](=O)[O-] [Compound 120]
  E. coli ATCC25922 MIC: + (a “+” indicates that the compound has an MIC value of 16 micrograms/ml or less)

## Cc1c(CCCCN)cc(-c2cc3cn(-c4ccc(CNCCCNC(=N)N)cc4)c(=O)nc3[nH]2)cc1[N+](=O)[O-] [Compound 121]
  E. coli ATCC25922 MIC: + (a “+” indicates that the compound has an MIC value of 16 micrograms/ml or less)

## N#Cc1cc(CCCCN)cc(-c2cc3cn(-c4ccc(CNCCCNC(=N)N)cc4)c(=O)nc3[nH]2)c1F [Compound 122]
  E. coli ATCC25922 MIC: + (a “+” indicates that the compound has an MIC value of 16 micrograms/ml or less)

## CCc1cc(CCCCN)cc(-c2cc3cn(-c4ccc(CNCCCNC(=N)N)cc4)c(=O)nc3[nH]2)c1 [Compound 123]
  E. coli ATCC25922 MIC: + (a “+” indicates that the compound has an MIC value of 16 micrograms/ml or less)

## CC(C)(CN)CCc1cc(F)c(Cl)c(-c2cc3cn(-c4ccc(CNCCCNC(=N)N)cc4)c(=O)nc3[nH]2)c1 [Compound 125]
  E. coli ATCC25922 MIC: + (a “+” indicates that the compound has an MIC value of 16 micrograms/ml or less)

## CC(CCN)Cc1cc(F)c(Cl)c(-c2cc3cn(-c4ccc(CNCCCNC(=N)N)cc4)c(=O)nc3[nH]2)c1 (centres unmarked) [Compound 128]
  E. coli ATCC25922 MIC: + (a “+” indicates that the compound has an MIC value of 16 micrograms/ml or less)

## CC(CCN)Cc1cc(-c2cc3cn(-c4ccc(CNCCCNC(=N)N)cc4)c(=O)nc3[nH]2)cc(F)c1Cl (centres unmarked) [Compound 129]
  E. coli ATCC25922 MIC: + (a “+” indicates that the compound has an MIC value of 16 micrograms/ml or less)

## CC(C)(N)CCCc1ccc(F)c(-c2cc3cn(-c4ccc(CNCCCNC(=N)N)cc4)c(=O)nc3[nH]2)c1 [Compound 130]
  E. coli ATCC25922 MIC: + (a “+” indicates that the compound has an MIC value of 16 micrograms/ml or less)

## CC(C)(N)CCCc1cc(OC(F)(F)F)cc(-c2cc3cn(-c4ccc(CNCCCNC(=N)N)cc4)c(=O)nc3[nH]2)c1 [Compound 131]
  E. coli ATCC25922 MIC: + (a “+” indicates that the compound has an MIC value of 16 micrograms/ml or less)
